Test [1] relates to mouse. Briefly: Mouse bone formation assay, micro-CT after complete dosing schedule. The format is in vivo. The settings on record: versus control solution. The text has this:
(§1) Compounds useful in the methods of the present invention can be identified via a variety of methods known to one of skill in the art. Several exemplary methods for identifying such antagonists are described herein, including cell-based and in vitro techniques (Journal of Bone and Mineral Research 2006, 21(11), 1738-1749). A general method of identifying SOST antagonists involves evaluating the effects of antagonist candidates on bone formation under controlled conditions. Preferably bone formation is determined using micro-CT techniques on live animals. Preferred animals include rodents, more preferred are primates. Femur, tibia and vertebrae bones are particularly useful subjects for such study.
Briefly, the test animal is treated with a predetermined dose of a SOST antagonist candidate. […]
Once the dosing schedule has been completed, both test and control animals are examined to determine the quantity of bone formation present. […] Where necessary, levels of bone formation can be calculated by determining the volume of bone formation present in each animal. […]
For example, the mouse test animal is treated with a predetermined dose of a SOST antagonist candidate for a complete dosing schedule. […] Once the dosing schedule has been completed, both test and control animals are examined with sacrifice using micro-CT to determine the quantity of bone formation present.

Test [2] deals with Wnt pathway. Briefly: Modulation of the Wnt pathway (FIGS. 1 and 2). The following applies: doses of 2.5 ng (low), 60 ng (medium), 125 ng (high).
Description: as §1

Test [3] has as its system C57BL/6 mice. Put plainly: Serum osteocalcin bone formation marker, EIA Elisa, in treated mice. The format is in vivo, mouse. The settings on record: four month old male C57BL/6 mice, 5 mg/kg, daily i.p. for 30 days. The text has this:
[…] Study endpoints included a biochemical marker of bone formation; osteocalcin, measured by EIA Elisa, and measurement of tibia trabecular bone volume by mico-CT analysis.

Test [4] relates to C57BL/6 mice. Briefly: Bone volume in treated mice by pQCT / micro-CT analysis. The format is in vivo, mouse. The following applies: four month old male C57BL/6 mice, 0.1 mg/kg, daily i.p. for 30 days. The protocol: Four month old male C57BL/6 mice were treated daily with saline vehicle or the sclerostin inhibitor of trimeprazine tartrate at 0.1 mg/kg (via i.p) for 30 days. […]

The results in this text go back to patent publication US20100055183A1 (OsteoGeneX Inc., priority 2008, published 2010).

Turning to `CCN(CC)C(C)CN1c2ccccc2Sc2ccccc21` (stereo not drawn) [ethopropazine], in test [1], the “bone growth (quantity of bone formation present)” value is “promoting bone growth”. The “modulation of the Wnt pathway to promote bone growth” value in test [2] is “modulating the Wnt pathway”.
`CC(CN(C)C)CN1c2ccccc2Sc2ccccc21` (stereo not drawn) [trimeprazine]: in test [1], the “bone growth (quantity of bone formation present)” value is recorded as “promoting bone growth”. Also, the “modulation of the Wnt pathway to promote bone growth” value in test [2] is “modulating the Wnt pathway”.
For the compound trimeprazine tartrate, the “percent increase in serum osteocalcin bone formation marker over saline controls” value in test [3] amounted to 46%. The “increase in bone volume for the femur over baseline controls” value in test [4] is “about 8%”.
